Columns and labels:
[1] = Microsomal stability in mouse liver microsome assessed as intrinsic clearance measured upto 60 mins in presence of NADPH and UDPGA by HPLC-MS/MS analysis; type: ADME; settings: liver microsomes, read-out: CLH
[2] = Microsomal stability in human liver microsome assessed as parent compound remaining at 60 mins in presence of NADPH and UDPGA by HPLC-MS/MS analysis; type: ADME; settings: liver microsomes, read-out: Stability
[3] = Observed apparent oral clearance in rat at 20 mg/kg, po by LC-MS/MS analysis; type: ADME, organism-based; settings: in vivo
[4] = Microsomal stability in monkey liver microsome assessed as intrinsic clearance measured upto 60 mins in presence of NADPH and UDPGA by HPLC-MS/MS analysis; type: ADME, Macaca mulatta; settings: rhesus monkey, liver microsomes, read-out: CLH
NIH3T3 = test: Antiproliferative activity against mouse 3T3 cells assessed as reduction in cell viability incubated for 3 days by MTT assay; type: toxicity, cell-based; settings: nih3t3, 72 h, time 3 day
[5] = Microsomal stability in human liver microsome assessed as intrinsic clearance measured upto 60 mins in presence of NADPH and UDPGA by HPLC-MS/MS analysis; type: ADME; settings: liver microsomes, read-out: CLH
[6] = Cmax in rat at 20 mg/kg, iv by LC-MS/MS analysis; type: ADME, organism-based; settings: in vivo
[7] = MRTlast in rat at 20 mg/kg, po by LC-MS/MS analysis; type: ADME, organism-based; settings: in vivo
[8] = AUC (0 to infinity) in rat at 20 mg/kg, po by LC-MS/MS analysis; type: ADME, organism-based; settings: in vivo
[9] = Microsomal stability in mouse liver microsome assessed as parent compound remaining at 60 mins in presence of NADPH and UDPGA by HPLC-MS/MS analysis; type: ADME; settings: liver microsomes, read-out: Stability
[10] = Acute toxicity in po dosed male CB17.SCID mouse implanted with human LNCaP cells assessed as body weight loss measured within 14 days; type: organism-based; settings: in vivo, time 14 day
[11] = AUC (0 to t) in rat at 20 mg/kg, iv by LC-MS/MS analysis; type: ADME, organism-based; settings: in vivo
[12] = Half life in rat at 20 mg/kg, po by LC-MS/MS analysis; type: ADME, organism-based; settings: in vivo
[13] = AUC (0 to infinity) in rat at 20 mg/kg, iv by LC-MS/MS analysis; type: ADME, organism-based; settings: in vivo
[14] = Microsomal stability in rat liver microsome assessed as parent compound remaining at 60 mins in presence of NADPH and UDPGA by HPLC-MS/MS analysis; type: ADME; settings: liver microsomes, read-out: Stability
[15] = biological target: T1, Mineralocorticoid receptor (Homo sapiens, UniProt P08235); test: Agonist activity at Mineralocorticoid receptor (unknown origin)
T1 sequence (P08235 whole entry): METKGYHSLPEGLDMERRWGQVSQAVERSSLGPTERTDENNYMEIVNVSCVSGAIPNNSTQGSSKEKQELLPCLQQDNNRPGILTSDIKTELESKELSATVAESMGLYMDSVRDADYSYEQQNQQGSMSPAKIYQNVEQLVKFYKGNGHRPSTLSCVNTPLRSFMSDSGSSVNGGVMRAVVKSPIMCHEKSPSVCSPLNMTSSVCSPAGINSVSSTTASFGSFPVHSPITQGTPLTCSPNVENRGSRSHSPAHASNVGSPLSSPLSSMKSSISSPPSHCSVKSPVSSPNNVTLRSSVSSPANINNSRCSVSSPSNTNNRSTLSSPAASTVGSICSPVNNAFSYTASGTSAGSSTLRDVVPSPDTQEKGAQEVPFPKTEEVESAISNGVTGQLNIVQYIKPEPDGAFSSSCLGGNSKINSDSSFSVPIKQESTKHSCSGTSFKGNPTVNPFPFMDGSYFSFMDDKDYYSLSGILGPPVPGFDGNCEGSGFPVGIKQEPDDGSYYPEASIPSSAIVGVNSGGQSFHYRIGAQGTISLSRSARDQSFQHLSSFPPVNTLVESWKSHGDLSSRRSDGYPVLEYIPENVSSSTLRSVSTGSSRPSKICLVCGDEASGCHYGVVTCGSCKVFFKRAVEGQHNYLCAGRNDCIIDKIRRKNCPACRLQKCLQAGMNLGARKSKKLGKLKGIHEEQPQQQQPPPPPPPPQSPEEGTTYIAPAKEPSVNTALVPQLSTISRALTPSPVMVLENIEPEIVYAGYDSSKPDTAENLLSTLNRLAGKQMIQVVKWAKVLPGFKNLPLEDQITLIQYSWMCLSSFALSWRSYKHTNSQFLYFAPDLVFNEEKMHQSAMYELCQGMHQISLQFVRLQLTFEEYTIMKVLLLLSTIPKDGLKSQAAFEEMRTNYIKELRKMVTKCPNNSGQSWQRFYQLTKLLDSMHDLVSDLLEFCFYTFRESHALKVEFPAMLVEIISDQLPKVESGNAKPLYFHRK

[16] = Microsomal stability in Beagle dog liver microsome assessed as parent compound remaining at 60 mins in presence of NADPH and UDPGA by HPLC-MS/MS analysis; type: ADME, Canis lupus familiaris; settings: liver microsomes, read-out: Stability
[17] = Microsomal stability in rat liver microsome assessed as intrinsic clearance measured upto 60 mins in presence of NADPH and UDPGA by HPLC-MS/MS analysis; type: ADME; settings: liver microsomes, read-out: CLH
[18] = Microsomal stability in rat liver microsome assessed as half life measured upto 60 mins in presence of NADPH and UDPGA by HPLC-MS/MS analysis; type: ADME; settings: liver microsomes
hERG (KCNH2) = hERG (KCNH2) (Homo sapiens, UniProt Q12809); test: Inhibition of hERG at 10 uM relative to control; type: toxicity
Androgen receptor [19] = biological target: Androgen receptor (Homo sapiens, UniProt P10275, W742C); test: Antagonist activity at Androgen receptor W742C mutant in human HEK293T cells cotransfected with MMTV-luc and renilla plasmid incubated for 24 hrs by Dual luciferase assay; type: cell-based
[20] = Acute toxicity in male CB17.SCID mouse implanted with human LNCaP cells assessed as abnormal behavior at 1250 mg/kg, po measured within 14 days; type: organism-based; settings: in vivo, 336 h, time 14 day
[21] = Microsomal stability in human liver microsome assessed as half life measured upto 60 mins in presence of NADPH and UDPGA by HPLC-MS/MS analysis; type: ADME; settings: liver microsomes
Androgen receptor [22] = biological target: Androgen receptor (Homo sapiens, UniProt P10275, F877L); test: Antagonist activity at Androgen receptor F877L mutant in human HEK293T cells cotransfected with MMTV-luc and renilla plasmid incubated for 24 hrs by Dual luciferase assay; type: cell-based
[23] = Microsomal stability in Beagle dog liver microsome assessed as half life measured upto 60 mins in presence of NADPH and UDPGA by HPLC-MS/MS analysis; type: ADME, Canis lupus familiaris; settings: liver microsomes
[24] = Microsomal stability in Beagle dog liver microsome assessed as intrinsic clearance measured upto 60 mins in presence of NADPH and UDPGA by HPLC-MS/MS analysis; type: ADME, Canis lupus familiaris; settings: liver microsomes, read-out: CLH
[25] = Observed apparent volume of distribution during terminal phase in rat at 20 mg/kg, iv by LC-MS/MS analysis; type: ADME, organism-based; settings: in vivo
[26] = Toxicity in male CB17.SCID mouse implanted with human LNCaP cells assessed as body weight loss at 40 mg/kg, po measured upto 30 days; type: organism-based; settings: in vivo, 720 h, time < 30 day
[27] = Tmax in rat at 20 mg/kg, po by LC-MS/MS analysis; type: ADME, organism-based; settings: in vivo

Androgen receptor (Homo sapiens, UniProt P10275, F877L), sequence (P10275 whole entry F877L): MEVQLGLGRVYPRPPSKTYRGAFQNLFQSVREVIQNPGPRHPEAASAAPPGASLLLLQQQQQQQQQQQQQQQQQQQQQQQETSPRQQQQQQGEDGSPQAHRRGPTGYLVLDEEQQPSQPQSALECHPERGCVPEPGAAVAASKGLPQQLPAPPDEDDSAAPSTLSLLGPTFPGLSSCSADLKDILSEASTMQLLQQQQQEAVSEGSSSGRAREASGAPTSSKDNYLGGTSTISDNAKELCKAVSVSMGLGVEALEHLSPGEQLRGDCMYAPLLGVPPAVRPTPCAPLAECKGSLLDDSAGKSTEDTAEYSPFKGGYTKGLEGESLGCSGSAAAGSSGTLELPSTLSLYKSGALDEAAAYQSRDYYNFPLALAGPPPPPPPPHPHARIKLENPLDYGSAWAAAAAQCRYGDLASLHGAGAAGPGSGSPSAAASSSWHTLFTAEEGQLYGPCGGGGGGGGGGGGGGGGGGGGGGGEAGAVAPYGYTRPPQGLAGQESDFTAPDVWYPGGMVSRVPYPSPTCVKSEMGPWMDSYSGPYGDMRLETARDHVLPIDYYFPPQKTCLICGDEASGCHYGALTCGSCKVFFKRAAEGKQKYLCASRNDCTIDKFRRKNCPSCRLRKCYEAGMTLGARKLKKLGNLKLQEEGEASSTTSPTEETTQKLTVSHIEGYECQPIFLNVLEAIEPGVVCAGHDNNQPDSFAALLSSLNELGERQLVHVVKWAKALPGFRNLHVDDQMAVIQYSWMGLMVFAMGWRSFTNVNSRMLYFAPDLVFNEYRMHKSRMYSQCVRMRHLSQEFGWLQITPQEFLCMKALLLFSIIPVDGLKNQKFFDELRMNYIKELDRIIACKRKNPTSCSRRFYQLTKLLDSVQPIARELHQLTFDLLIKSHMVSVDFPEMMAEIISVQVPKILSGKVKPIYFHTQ
hERG (KCNH2), sequence (Q12809 whole entry): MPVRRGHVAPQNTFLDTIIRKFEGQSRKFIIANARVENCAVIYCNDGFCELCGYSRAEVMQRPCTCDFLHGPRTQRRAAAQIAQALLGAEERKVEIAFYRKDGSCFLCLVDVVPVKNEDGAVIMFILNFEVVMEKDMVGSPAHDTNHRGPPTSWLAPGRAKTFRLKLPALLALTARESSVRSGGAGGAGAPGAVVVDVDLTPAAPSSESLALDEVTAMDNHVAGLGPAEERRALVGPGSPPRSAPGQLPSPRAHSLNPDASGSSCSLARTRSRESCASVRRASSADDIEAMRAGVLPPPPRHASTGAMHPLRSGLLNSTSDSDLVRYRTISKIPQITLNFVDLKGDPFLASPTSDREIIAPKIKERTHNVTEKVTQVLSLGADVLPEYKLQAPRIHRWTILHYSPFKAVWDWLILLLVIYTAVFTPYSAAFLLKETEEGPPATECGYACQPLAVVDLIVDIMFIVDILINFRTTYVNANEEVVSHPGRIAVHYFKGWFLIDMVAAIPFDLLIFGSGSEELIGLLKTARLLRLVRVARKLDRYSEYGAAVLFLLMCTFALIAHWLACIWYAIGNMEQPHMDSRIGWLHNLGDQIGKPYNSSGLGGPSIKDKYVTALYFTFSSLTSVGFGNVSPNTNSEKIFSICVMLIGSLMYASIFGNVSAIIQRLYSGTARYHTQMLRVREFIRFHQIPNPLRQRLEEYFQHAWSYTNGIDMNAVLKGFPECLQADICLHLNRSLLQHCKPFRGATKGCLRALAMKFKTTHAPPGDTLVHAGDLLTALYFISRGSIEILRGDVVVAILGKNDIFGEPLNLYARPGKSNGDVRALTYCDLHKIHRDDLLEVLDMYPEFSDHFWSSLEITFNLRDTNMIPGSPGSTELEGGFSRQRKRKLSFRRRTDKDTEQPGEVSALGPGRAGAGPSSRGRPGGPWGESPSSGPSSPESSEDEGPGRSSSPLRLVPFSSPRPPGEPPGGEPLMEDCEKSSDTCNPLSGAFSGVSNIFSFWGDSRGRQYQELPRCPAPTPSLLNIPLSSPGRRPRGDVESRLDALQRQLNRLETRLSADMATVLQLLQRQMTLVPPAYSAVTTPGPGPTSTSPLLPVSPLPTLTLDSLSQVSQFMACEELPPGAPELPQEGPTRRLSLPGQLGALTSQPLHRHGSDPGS
Androgen receptor (Homo sapiens, UniProt P10275, W742C), sequence (P10275 whole entry W742C): as the sequence (P10275 whole entry F877L) above, with W742C, L877F counted along it

Cc1oc(-c2cccc(C(F)(F)F)c2)cc1C(=O)Nc1nc(CN2CCOCC2)ns1
microsomal CLint [1]: 18 µL/min/mg
remaining at 1 h [2]: 29.7%
CL/F [3]: 17.3 mL/min/kg
microsomal CLint [4]: 7.3 µL/min/mg
Activity (NIH3T3): Non-toxic
microsomal CLint [5]: 18.7 µL/min/mg
Cmax [6]: 8450 ng/mL
MRT last [7]: 6.65 h
AUC(0-inf) [8]: 22100 ng·h/mL
remaining at 1 h [9]: 32.3%
LD50 at 336 h [10]: 1250 mg/kg
AUC(0-t) [11]: 32000 ng·h/mL
half-life [12]: 6.86 h
AUC(0-inf) [13]: 35800 ng·h/mL
remaining at 1 h [14]: 22.5%
IC50 [15]: > 10000 nM
remaining at 1 h [16]: 12.6%
microsomal CLint [17]: 23.4 µL/min/mg
half-life [18]: 0.494 h
inhibition at 10 µM (hERG (KCNH2)): 20.7%
IC50 (Androgen receptor [19]): 240 nM
Activity [20]: Non-toxic
half-life [21]: 0.618 h
IC50 (Androgen receptor [22]): 10 nM
half-life [23]: 0.367 h
microsomal CLint [24]: 31.5 µL/min/mg
Vz/F_obs [25]: 6.8 L/kg
Activity [26]: Non-toxic
Tmax [27]: 3.33 h
